Measurements as given in PubChem BioAssay (NCI).
Converted amounts (≈) assume the structure as drawn. “And” between values parts separate entries of the source, which are not always exact repeats. Identical values can stand only once.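 How tested: cells in 96-well plates exposed to compound for 48 hours at five concentrations. Abbreviation: GI50, concentration required for 50% inhibition of growth. TGI denotes the concentration required for complete inhibition of growth.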 The source made the active and inactive calls. Cut-off read from the data, not from the text of the source: active = GI50 below about 0.43 µM; inactive = the rest.

Key:
Experiment in all cases: inhibition of tumour cell growth, NCI panel, 48 h
RXF 393 renal = system: RXF 393 renal
NCI-H522 lung = system: NCI-H522 lung
SK-OV-3 ovarian = system: SK-OV-3 ovarian
LXFL 529 NSCLC = system: LXFL 529 NSCLC
UACC-62 melanoma = system: UACC-62 melanoma
CAKI-1 renal = system: CAKI-1 renal
SF-539 CNS = system: SF-539 CNS
SNB-78 CNS = system: SNB-78 CNS
SR leukemia = system: SR leukemia
HCT-15 colon = system: HCT-15 colon

SMILES	TGI (RXF 393 renal)	TGI (NCI-H522 lung)	TGI (SK-OV-3 ovarian)	TGI (LXFL 529 NSCLC) [µM]	TGI (UACC-62 melanoma)	TGI (CAKI-1 renal)	TGI (SF-539 CNS)	TGI (SNB-78 CNS)	TGI (SR leukemia)	GI50 (RXF 393 renal)	GI50 (NCI-H522 lung)	GI50 (SK-OV-3 ovarian) [µg/mL]	outcome (LXFL 529 NSCLC)	GI50 (UACC-62 melanoma)	GI50 (SF-539 CNS)	GI50 (SNB-78 CNS) [µg/mL]	GI50 (SR leukemia)	GI50 (HCT-15 colon)	TGI (HCT-15 colon)	GI50 (CAKI-1 renal)
CN(C)CCCn1cnc2ncccc2c1=O	> 100 µM	> 100 µM	> 100 µM	> 100	> 100 µM	> 100 µM	> 100 µM	> 100 µM	> 100 µM	–	–	–	–	–	–	–	–	–	–	–
O=C(Nc1ccc(Cl)cc1)NS(=O)(=O)c1ccc2c(c1)CCC2	79.3 µM and 22.8 µg/mL	94.1 µM and 12.5 µg/mL	86.1 µM and 41.9 µg/mL	> 100	> 84.7 µM and 36.7 µg/mL	> 100 µM	> 69.2 µM and 37 µg/mL	> 100 µM and 51 µg/mL	> 100 µM and 91.6 µg/mL	2.52 µg/mL	4.86 µg/mL	18 (≈ 51.2 µM)	inactive	15.9 µg/mL	17.6 µg/mL	8.37 (≈ 23.9 µM)	19.3 µg/mL	16.3 µg/mL	> 90.2 µM and 41.8 µg/mL	–
COc1c(O)c2ccccc2c2cc(O)ccc12	22.9 µM	15.7 µM	55 µM	9.9	6.1 µM	22.9 µM	9.88 µM	46.6 µM	> 68.4 µM	–	–	–	–	–	–	–	–	–	20.1 µM	–
O=c1[nH]nc(-c2ccccc2)c(-c2ccccc2)c1-n1nc(-c2ccccc2)c2ccccc2c1=O	–	> 100 µM	> 100 µM	> 100	> 100 µM	> 100 µM	> 100 µM	> 100 µM	> 100 µM	–	–	–	–	–	–	–	–	–	> 100 µM	–
CCC12C=CCN3CC[C@]4(C(=C(C(=O)OC)[C@@H]1Nc1ncnc5c1ncn5C1OC(COC(C)=O)C(OC(C)=O)C1OC(C)=O)Nc1ccccc14)C32 (stereo partly drawn)	3.92 µM	3.12 µM	5.32 µM	5.42	10.3 µM	12.6 µM	4.4 µM	8.26 µM	6.17 µM	–	–	–	–	–	–	–	–	–	7.79 µM	–
COC(=O)C1=Cc2cc3c(cc2[C@H](c2ccc4c(c2)OCO4)C1C(=O)OC)OCO3 (stereo partly drawn)	> 100 µM	–	> 100 µM	> 100	> 100 µM	> 100 µM	> 100 µM	> 100 µM	> 100 µM	–	–	–	–	–	–	–	–	–	> 100 µM	–
COc1ccc(CN(O)C2C(CO)OC(n3cc(I)c(=O)[nH]c3=O)C2O)cc1 (stereo not drawn)	> 100 µM	> 100 µM	> 100 µM	> 100	> 100 µM	> 100 µM	> 100 µM	> 100 µM	> 100 µM	–	–	–	–	–	–	–	–	–	> 100 µM	–
COc1ccc(NC(=O)CC/C(CC(=O)c2ccco2)=N/Nc2ccc([N+](=O)[O-])cc2[N+](=O)[O-])cc1	> 100 µM	> 100 µM	> 100 µM	> 100	> 100 µM	> 100 µM	> 100 µM	> 100 µM	64.4 µM	–	–	–	–	–	–	–	–	–	> 100 µM	–
Cc1cc(O)c2c(c1)C[C@@H](O)C1=C2C(=O)c2c(O)ccc(OC3CC(O)C(OC4CC(OC5CCC(OC6CC(O)C(OC7CC(OC8CCC(O)C(C)O8)C(O)C(C)O7)C(C)O6)C(C)O5)C(O)C(C)O4)C(C)O3)c2C1=O (stereo partly drawn)	0.108 µM and 0.535 µM and 0.751 µM	0.0534 µM and 0.217 µM and 0.415 µM	–	0.0293	0.134 µM and 0.658 µM and 1.18 µM	0.274 µM and 1.18 µM and 1.45 µM	–	0.064 µM	–	0.302 µM and 0.29 µM	0.0888 µM and 0.176 µM	–	–	0.237 µM and 0.315 µM	0.391 µM and 1.31 µM	–	0.033 µM and 0.0475 µM	0.231 µM	0.148 µM and 0.488 µM	0.398 µM and 0.439 µM
CC(=O)Oc1c(-c2ccccc2)[nH]c2cc([N+](=O)[O-])c(/C(Cl)=C/c3ccccc3)cc12	–	18.5 µM	83.9 µM	18.1	19.6 µM	69.2 µM	–	52.6 µM	27.4 µM	–	–	–	–	–	–	–	–	–	–	–
CC(C)NC(=O)OCc1nnn2c1C(OC(=O)NC(C)C)CC2 (stereo not drawn)	> 100 µM	> 100 µM	> 100 µM	> 100	> 100 µM	> 100 µM	> 100 µM	> 100 µM	> 100 µM	–	–	–	–	–	–	–	–	–	> 100 µM	–
COC(=O)C1=C(O)C(O)=C(C(=O)OC)CC1	35.1 µM	> 100 µM	> 100 µM	> 100	> 100 µM	> 100 µM	> 100 µM	> 100 µM	> 100 µM	–	–	–	–	–	–	–	–	–	> 100 µM	–
O=C(Nc1nc2ncn(CCOC(=O)c3ccccc3)c2c(=O)[nH]1)c1ccccc1	> 93.2 µM	8.32 µM	> 79.9 µM	> 100	> 100 µM	> 100 µM	65.2 µM	> 100 µM	> 100 µM	–	–	–	–	–	–	–	–	–	> 100 µM	–
CN1CCC(O)C(CNC23CC4CC(CC(C4)C2)C3)C1 (stereo not drawn)	> 100 µM	> 100 µM	> 100 µM	> 100	> 100 µM	> 100 µM	> 100 µM	> 100 µM	> 100 µM	–	–	–	–	–	–	–	–	–	–	–
CC(=O)OC1COC(N2C(=O)C(=O)c3c(C)cc(Cl)nc32)C(OC(C)=O)C1OC(C)=O (stereo not drawn)	> 100 µM	–	–	> 100	> 100 µM	> 100 µM	> 100 µM	> 100 µM	> 100 µM	–	–	–	–	–	–	–	–	–	> 100 µM	–
O=C(c1ccccc1)c1nnn(Cc2cccc(Cl)c2)c1C(=O)c1ccccc1	> 100 µM	> 100 µM	> 100 µM	> 100	> 100 µM	> 100 µM	–	> 100 µM	> 100 µM	–	–	–	–	–	–	–	–	–	> 100 µM	–
